Data reported in patent publication US20120015364A1, “METHOD FOR THE SELECTION OF ENDOTHELIAL CELLS DEATH INDUCERS VIA NETRIN-1 AND ITS APPLICATIONS” (CENTRE NATIONAL DE LA RECHERCHE SCIENTIFIQUE (CNRS), priority 2009, published 2012).
Peptide text beside a SMILES is read from it. * marks the point of attachment. Cbz = O=C(OCc1ccccc1)*; CH2F = FC*

Legend:
murine aortic rings = assay: Aortic ring matrigel assay (ex vivo); assay type: cell-based, mouse; settings: netrin-1 150 ng/ml, z-VAD-fmk 20 nM, BAF 20 nM, VEGF 13 ng/ml; day 4
Experimental: Aortic ring assays were performed as described by Nicosia and colleagues (Nicosia and Ottinetti, 1990). Aortas were resected from Balb/C mice of 6 to 8 weeks of age, cleaned of periadventitial fat and connective tissues, rinsed twice in ECGM and cut in rings of 1 to 1.5 mm length. One hundred microliters of Growth factor reduced Matrigel (BD Biosciences) was added to each well of a 48-well tissue culture plate (Costar) and allowed to solidify for 30 min. at 37° C. Aortic rings were placed on the matrix layer, embedded in 100 μl of Matrigel, and allowed to recover in complete growth medium (ECGM, Promocell) for 24 hours. They were then treated or not with netrin-1 (150 ng/ml), z-VAD-fmk (Tebu; 20 nM), BAF (Sigma; 20 nM) or VEGF (Sigma; 13 ng/ml) and photographed with a phase contrast microscope on day 4. Microvessels outgrowth total length was calculated using AxioVision Release 4.6 software.

[1] = system: chick chorioallantoic membrane; assay: Chick chorioallantoic membrane (CAM) assay; assay type: in vivo; settings: 8-day-old chick embryos, 3 days; netrin-1 150 ng/ml, z-VAD-fmk 20 nM, BAF 20 nM; p<0.02
Experimental: Chick chorioallantoic membrane assay (CAM) assay was performed as already described. White Leghorn eggs were incubated at 37° C. in a humidified atmosphere. After 72 hours of incubation, 3 ml albumen was removed and a square window was opened into the shell. The opening was closed with cellotape until day 8. Netrin-1 (150 ng/ml), z-VAD-fmk (Tebu; 20 nM), BAF (Sigma; 20 nM), or VEGF (Sigma) were then diluted in PBS and mixed with an equal volume of autoclaved 1% methylcellulose solution. Controls were prepared with vehicles only. Each sample solution (10 μl) was dropped on Parafilm and dried up. The methylcellulose disks were stripped off from the Parafilm and placed on a CAM of the 8-day-old chick embryos. After 3 days, CAMs were photographed and the angiogenic response was evaluated by measuring the number of secondary ectopic vessels sprouts under the methylcellulose disks using AxioVision Release 4.6 software. UNC5B silencing in CAM was achieved by injection of specific siRNA designed by Sigma-Proligo in CAM blood circulation at E.5, E.7 and E.9. Analysis was performed at E.11.

[2] = system: fli:egfp zebrafish embryos; assay: Morpholino knockdown of fli:egfp zebrafish embryos, trunk vasculature phenotype; assay type: in vivo
Experimental: Resource Center (University of Oregon) and maintained under standard breeding conditions at 28° C. (Lawson and Weinstein, 2002). Embryos were dechorionated using pronase enzymatic treatment and 6 ng of splice/translation blocking netrin-1, UNC5B and control morpholinos that were previously designed and characterized were injected alone or in combination in the high yolk of one to four-cells-stage embryos. A third splice-blocking morpholino specifically targeting netrin-1a was designed (GeneTools) and injected in embryos at the same dose. Finally, 3 ng of a translation-blocking morpholino targeting zebrafish ortholog of DAP kinase (GeneTools) was injected, leading to 35% decrease of DAP kinase mRNA expression in knocked-down embryos compared to control. Sequences of morpholinos are available upon request. Embryos were raised in E3 medium supplemented with 0.003% phenylthiourea to inhibit pigment formation. Rescue of phenotype induced by netrin-1a silencing was tested by adding 40 nM BAF in the E3 medium 4 hours after morpholinos injection. For TUNEL staining, embryos were fixed at 48 hpf in 4% PFA overnight at 4° C. They were then rinsed 10 minutes in PBS-Tween 0.1% (PBST) and progressively dehydrated in successive methanol baths (25, 50, 75 and 100%). […]

zebrafish embryos = assay: Apoptosis in zebrafish embryos (TUNEL staining, caspase-3 activity); assay type: in vivo; settings: TUNEL immunostaining and caspase-3 activity; tsl-netrin-1a injected embryos
Experimental: Embryos were dechorionated using pronase enzymatic treatment and 6 ng of splice/translation blocking netrin-1, UNC5B and control morpholinos that were previously designed and characterized were injected alone or in combination in the high yolk of one to four-cells-stage embryos. A third splice-blocking morpholino specifically targeting netrin-1a was designed (GeneTools) and injected in embryos at the same dose. […] Embryos were raised in E3 medium supplemented with 0.003% phenylthiourea to inhibit pigment formation. Rescue of phenotype induced by netrin-1a silencing was tested by adding 40 nM BAF in the E3 medium 4 hours after morpholinos injection. For TUNEL staining, embryos were fixed at 48 hpf in 4% PFA overnight at 4° C. They were then rinsed 10 minutes in PBS-Tween 0.1% (PBST) and progressively dehydrated in successive methanol baths (25, 50, 75 and 100%). […] Caspase-3 activity assay was performed as described above on whole embryos at 24 h development.

HUAEC [3] = assay: Cell death upon serum starvation, trypan blue exclusion; assay type: cell-based, human; settings: netrin 50 ng/ml, p<0.005
Experimental: (§1) Cell death assays were performed as described previously. Briefly, endothelial cells were seeded at 10 000 cells/cm2 in complete medium for 16 hours. Cell death was induced either by starvation in serum free medium (Endothelium Cell Basal Medium, Promocell) or by exposure to 50 μM etoposide. Netrin-1 was purchased from Axxora-Apotech. Cell death was scored by trypan blue exclusion assay as previously described. For detection of DNA fragmentation, treated cells cultured on coverslips were fixed 20 minutes in 4% paraformaldehyde (PFA) and Terminal deoxynucleodityl transferase mediated dUTP-biotin Nick End Labeling (TUNEL) was performed with 300 U/mL TUNEL enzyme (300 U/mL) and 6 μM biotinylated dUTP (Roche Diagnostics). Caspase-3 activity was measured using ApoAlert CPP32 kit from Clontech (USA) and by immunostaining on fixed cells using anti-active-caspase-3 antibody (Cell Signaling) as described in (Llambi et al., 2005; Tauszig-Delamasure et al., 2007). Toxilight assay was performed according to manufacturer's instructions (Lonza). For netrin-1 titration experiment, rat recombinant UNC5H2-Fc (R&D) was used at 1 μg/ml.

HUVEC [4] = assay: as above; assay type: cell-based, human; settings: netrin 50 ng/ml, p<0.005
Experimental: as §1

HUAEC [5] = assay: Etoposide-induced cell death, Toxilight assay; assay type: cell-based, human; settings: overnight treatment with 50 μM etoposide; p<0.05
Experimental: as §1

HUVEC [6] = assay: Etoposide-induced cell death, Toxilight assay; assay type: cell-based, human; settings: overnight treatment with 50 μM etoposide; p<0.05
Experimental: as §1

HUVEC [7] = assay: TUNEL staining of apoptosis; assay type: cell-based, human; settings: netrin 50 ng/ml
Experimental: as §1

HUVEC [8] = assay: Caspase-3 activity assay (ApoAlert CPP32 kit, active caspase-3 immunostaining); assay type: cell-based, human; settings: netrin 50 ng/ml, p<0.005
Experimental: Human umbilical vein and artery cells (Promocell, passages<8) were cultured in endothelial cell growth medium (ECGM, Promocell) supplemented with 2% serum (kit, Promocell) until they reach 80% confluence. HUVEC were transfected using the AMAXA Nucleofector system, according to manufacturer's instructions. In brief, 500 000 cells were resuspended in 100 μl HUVEC Nucleofector solution and transfected with 1 μg siRNA or 1.5 μg plasmid DNA and 0.5 μg GFP-encoding control plasmid. UNC5A, UNC5B and scramble siRNAs were designed by Sigma-Proligo. Plasmids encoding mutant DAP kinase (DAP kinase ΔCam and DAP kinase DD) were described previously (Llambi et al., 2005). After transfection, cells were cultured in 1% growth medium and collected after 24 hours.
Cell death assays were performed as described previously. Briefly, endothelial cells were seeded at 10 000 cells/cm2 in complete medium for 16 hours. Cell death was induced either by starvation in serum free medium (Endothelium Cell Basal Medium, Promocell) or by exposure to 50 μM etoposide. Netrin-1 was purchased from Axxora-Apotech. Cell death was scored by trypan blue exclusion assay as previously described. […] Caspase-3 activity was measured using ApoAlert CPP32 kit from Clontech (USA) and by immunostaining on fixed cells using anti-active-caspase-3 antibody (Cell Signaling) as described in (Llambi et al., 2005; Tauszig-Delamasure et al., 2007). […]

HUAEC [9] = assay: as above; assay type: cell-based, human; settings: netrin 50 ng/ml, p<0.005
Experimental: as §1

DAP kinase = DAP kinase phosphorylation, Western blot; assay type: cell-based, human; settings: HUVEC; netrin-1 in serum free medium 24 hours
Experimental: Endothelial cells seeded at 10 000 cells/cm^2 and treated or not with netrin-1 in serum free medium (Endothelium Cell Basal Medium, Promocell) for 24 hours were collected and lysed in 50 mM HEPES pH 7.6, 125 mM NaCl, 5 mM EDTA and 0.1% NP-40 buffer in the presence of protease inhibitors. Protein extracts were immunoblotted with anti-DAP-kinase and anti-phospho-DAP kinase antibodies (Sigma). For immunofluorescence analysis, cells were seeded on LabTek chamber slides and fixed 15 minutes in 4% PFA.

| Compound | capillary sprouting / microvessels formation from aortic rings (murine aortic rings) | neovessel formation in vicinity of methylcellulose discs [1] | embryos with PAV formation ([2]; spl-netrin-1a injected embryos treated with 40 nM BAF, n=54, 42.7% in untreated, p<0.0001) [%] | embryos displaying at least partial ISVs ([2]; tsl-netrin-1a knock-down embryos treated with BAF, 23.0% in controls, p<0.001) [%] | increase of cell death after netrin-1a silencing (zebrafish embryos) | HUAEC cell death (HUAEC [3]) | HUVEC cell death (HUVEC [4]) | HUAEC cell death upon etoposide (HUAEC [5]) | HUVEC cell death upon etoposide (HUVEC [6]) | number of TUNEL positive cells (HUVEC [7]) | reduced caspase-3 activity (HUVEC [8]) | reduced caspase-3 activity (HUAEC [9]) [%] | DAP kinase phosphorylation (DAP kinase) |
| --- | --- | --- | --- | --- | --- | --- | --- | --- | --- | --- | --- | --- | --- |
| COC(=O)C[C@H](NC(=O)OC(C)(C)C)C(=O)CF [BAF] | induced neocapillary tube formation | significant increase in neovessel formation | 92.6 | 54.5 | rescued the increase of cell death | – | – | – | – | – | – | – | – |
| COC(=O)C[C@H](NC(=O)[C@H](C)NC(=O)[C@@H](NC(=O)OCc1ccccc1)C(C)C)C(=O)CF [z-VAD-fmk, reference compound] (Cbz-Val-Ala-Asp(OMe)-CH2F) | induced neocapillary tube formation | significant increase in neovessel formation | – | – | – | – | – | – | – | – | – | – | – |
| VEGF | enhanced capillary sprouting | significant increase in neovessel formation | – | – | – | – | – | – | – | – | – | – | – |
| netrin-1 | enhanced capillary sprouting | significant increase in neovessel formation | – | – | – | inhibited | inhibited | inhibits | inhibits | decreased number of TUNEL positive cells | up to 30% | ≤ 40 | increase in DAP kinase phosphorylation |
